Measurements reported in ChEMBL document CHEMBL5291721, “A preclinical secondary pharmacology resource illuminates target-adverse drug reaction associations of marketed drugs” (Nat Commun, 2023).

What was measured:
[1] = biological target: T1, Adenosine receptor A3 (Homo sapiens, UniProt P0DMS8)
T1 sequence (P0DMS8 whole entry): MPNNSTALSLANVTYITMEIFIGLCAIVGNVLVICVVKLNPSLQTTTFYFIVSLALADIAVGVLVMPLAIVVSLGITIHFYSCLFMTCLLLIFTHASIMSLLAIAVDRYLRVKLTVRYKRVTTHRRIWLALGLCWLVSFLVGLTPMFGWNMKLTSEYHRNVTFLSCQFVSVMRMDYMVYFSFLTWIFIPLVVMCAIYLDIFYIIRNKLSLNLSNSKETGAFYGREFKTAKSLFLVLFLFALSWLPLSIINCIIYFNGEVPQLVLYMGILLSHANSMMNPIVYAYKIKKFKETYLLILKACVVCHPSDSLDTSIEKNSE

[2] = biological target: 5-hydroxytryptamine receptor 2B (Homo sapiens, UniProt P41595); type: functional, cell-based
[3] = biological target: 3',5'-cyclic-AMP phosphodiesterase 4D (Homo sapiens, UniProt Q08499); type: functional
[4] = biological target: T2, Alpha-2A adrenergic receptor (Homo sapiens, UniProt P08913); type: functional, cell-based
T2 sequence (P08913 whole entry): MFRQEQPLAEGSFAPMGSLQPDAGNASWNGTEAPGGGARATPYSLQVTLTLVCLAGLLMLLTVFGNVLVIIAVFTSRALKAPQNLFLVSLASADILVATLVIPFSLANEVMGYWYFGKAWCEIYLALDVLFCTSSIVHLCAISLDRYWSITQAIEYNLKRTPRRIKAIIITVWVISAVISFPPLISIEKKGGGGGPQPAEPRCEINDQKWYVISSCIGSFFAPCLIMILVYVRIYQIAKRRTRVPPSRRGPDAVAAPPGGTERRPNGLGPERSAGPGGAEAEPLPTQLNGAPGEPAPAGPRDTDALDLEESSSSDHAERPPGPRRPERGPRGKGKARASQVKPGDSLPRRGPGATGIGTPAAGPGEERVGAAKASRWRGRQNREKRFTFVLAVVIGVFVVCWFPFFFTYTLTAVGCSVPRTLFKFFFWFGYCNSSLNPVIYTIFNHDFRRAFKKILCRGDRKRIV

[5] = biological target: T3, 5-hydroxytryptamine receptor 1A (Homo sapiens, UniProt P08908); type: functional, cell-based
T3 sequence (P08908 whole entry): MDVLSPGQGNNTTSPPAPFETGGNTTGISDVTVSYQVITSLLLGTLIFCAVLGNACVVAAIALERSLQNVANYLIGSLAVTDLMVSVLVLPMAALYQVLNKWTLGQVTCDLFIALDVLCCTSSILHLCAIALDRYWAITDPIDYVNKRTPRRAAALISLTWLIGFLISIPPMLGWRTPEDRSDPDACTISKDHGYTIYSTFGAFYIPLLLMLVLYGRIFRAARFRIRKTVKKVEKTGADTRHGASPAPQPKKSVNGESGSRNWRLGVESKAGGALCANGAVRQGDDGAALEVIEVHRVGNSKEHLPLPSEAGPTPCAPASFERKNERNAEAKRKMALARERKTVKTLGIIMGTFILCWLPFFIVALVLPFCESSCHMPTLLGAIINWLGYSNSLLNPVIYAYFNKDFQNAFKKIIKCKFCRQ

[6] = biological target: T4, 5-hydroxytryptamine receptor 2C (Homo sapiens, UniProt P28335)
T4 sequence (P28335 whole entry): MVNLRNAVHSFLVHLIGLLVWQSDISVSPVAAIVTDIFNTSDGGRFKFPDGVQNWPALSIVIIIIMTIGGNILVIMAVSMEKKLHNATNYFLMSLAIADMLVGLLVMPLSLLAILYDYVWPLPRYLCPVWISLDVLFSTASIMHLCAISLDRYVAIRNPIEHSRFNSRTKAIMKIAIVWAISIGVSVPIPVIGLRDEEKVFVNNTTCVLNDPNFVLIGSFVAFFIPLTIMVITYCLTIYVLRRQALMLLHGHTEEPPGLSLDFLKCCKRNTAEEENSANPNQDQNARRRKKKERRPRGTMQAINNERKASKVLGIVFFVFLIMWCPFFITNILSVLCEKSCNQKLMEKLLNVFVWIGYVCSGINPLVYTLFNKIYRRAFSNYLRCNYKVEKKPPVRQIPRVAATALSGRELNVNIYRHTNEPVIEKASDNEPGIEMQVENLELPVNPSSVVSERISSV

[7] = biological target: Growth hormone secretagogue receptor type 1 (Homo sapiens, UniProt Q92847)
[8] = biological target: Beta-1 adrenergic receptor (Homo sapiens, UniProt P08588); type: functional
[9] = biological target: Adenosine receptor A2a (Homo sapiens, UniProt P29274)
[10] = biological target: Delta-type opioid receptor (Homo sapiens, UniProt P41143)
[11] = biological target: T5, Equilibrative nucleoside transporter 1 (Homo sapiens, UniProt Q99808)
T5 sequence (Q99808 whole entry): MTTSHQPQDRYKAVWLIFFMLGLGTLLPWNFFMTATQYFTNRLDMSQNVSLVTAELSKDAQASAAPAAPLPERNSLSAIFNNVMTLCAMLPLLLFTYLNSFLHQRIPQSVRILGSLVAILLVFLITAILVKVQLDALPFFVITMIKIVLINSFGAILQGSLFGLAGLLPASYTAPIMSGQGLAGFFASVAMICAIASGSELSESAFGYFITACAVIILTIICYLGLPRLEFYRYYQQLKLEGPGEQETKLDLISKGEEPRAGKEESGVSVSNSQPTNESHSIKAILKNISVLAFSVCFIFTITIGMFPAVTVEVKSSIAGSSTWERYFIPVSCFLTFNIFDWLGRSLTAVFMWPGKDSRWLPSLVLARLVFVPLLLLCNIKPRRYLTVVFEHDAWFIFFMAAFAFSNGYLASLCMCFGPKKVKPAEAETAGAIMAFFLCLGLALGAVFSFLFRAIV
Also: assay procedure not described here.

Chain of 3',5'-cyclic-AMP phosphodiesterase 4D (Q08499 whole entry): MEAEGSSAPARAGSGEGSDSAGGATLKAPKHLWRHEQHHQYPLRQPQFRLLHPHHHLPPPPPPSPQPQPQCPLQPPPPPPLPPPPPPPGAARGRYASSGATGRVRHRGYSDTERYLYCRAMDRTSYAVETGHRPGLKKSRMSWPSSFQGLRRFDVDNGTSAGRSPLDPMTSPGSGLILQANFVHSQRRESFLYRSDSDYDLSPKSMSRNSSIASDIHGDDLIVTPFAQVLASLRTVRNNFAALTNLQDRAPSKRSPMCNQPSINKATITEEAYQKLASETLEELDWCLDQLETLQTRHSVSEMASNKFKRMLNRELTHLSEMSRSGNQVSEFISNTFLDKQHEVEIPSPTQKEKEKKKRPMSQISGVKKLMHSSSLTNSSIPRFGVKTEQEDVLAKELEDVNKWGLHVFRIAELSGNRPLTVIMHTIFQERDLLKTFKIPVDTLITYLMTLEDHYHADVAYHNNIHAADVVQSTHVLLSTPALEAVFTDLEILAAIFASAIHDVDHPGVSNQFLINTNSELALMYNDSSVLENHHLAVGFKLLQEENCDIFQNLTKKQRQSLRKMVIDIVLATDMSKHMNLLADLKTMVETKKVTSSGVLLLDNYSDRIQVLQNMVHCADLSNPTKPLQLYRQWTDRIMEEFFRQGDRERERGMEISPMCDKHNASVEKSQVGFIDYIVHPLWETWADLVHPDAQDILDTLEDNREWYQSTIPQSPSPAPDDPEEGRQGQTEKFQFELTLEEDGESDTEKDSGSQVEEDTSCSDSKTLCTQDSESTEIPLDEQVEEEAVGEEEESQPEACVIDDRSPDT
Chain of Growth hormone secretagogue receptor type 1 (Q92847 whole entry): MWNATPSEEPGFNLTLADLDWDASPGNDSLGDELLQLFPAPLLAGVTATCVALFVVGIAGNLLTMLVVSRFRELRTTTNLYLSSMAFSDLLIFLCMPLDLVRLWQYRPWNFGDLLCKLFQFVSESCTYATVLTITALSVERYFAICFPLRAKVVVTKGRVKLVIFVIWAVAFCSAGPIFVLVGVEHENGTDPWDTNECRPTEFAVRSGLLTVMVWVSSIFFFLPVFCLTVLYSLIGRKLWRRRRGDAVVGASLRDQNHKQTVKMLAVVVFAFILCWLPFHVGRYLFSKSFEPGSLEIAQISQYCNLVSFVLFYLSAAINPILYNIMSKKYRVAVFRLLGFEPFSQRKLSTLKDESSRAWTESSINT
Chain of Beta-1 adrenergic receptor (P08588 whole entry): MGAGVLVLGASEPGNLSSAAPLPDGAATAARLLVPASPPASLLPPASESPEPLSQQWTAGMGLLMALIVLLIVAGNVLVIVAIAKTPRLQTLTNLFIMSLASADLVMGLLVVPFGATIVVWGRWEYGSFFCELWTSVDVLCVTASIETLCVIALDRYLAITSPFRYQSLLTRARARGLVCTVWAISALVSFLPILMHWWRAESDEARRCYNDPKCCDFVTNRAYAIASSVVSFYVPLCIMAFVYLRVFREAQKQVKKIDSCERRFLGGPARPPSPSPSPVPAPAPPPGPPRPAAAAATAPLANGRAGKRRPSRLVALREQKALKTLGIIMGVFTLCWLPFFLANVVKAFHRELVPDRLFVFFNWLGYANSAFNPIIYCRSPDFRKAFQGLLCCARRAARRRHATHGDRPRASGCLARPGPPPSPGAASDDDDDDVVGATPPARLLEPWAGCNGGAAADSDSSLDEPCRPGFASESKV
Chain of Adenosine receptor A2a (P29274 whole entry): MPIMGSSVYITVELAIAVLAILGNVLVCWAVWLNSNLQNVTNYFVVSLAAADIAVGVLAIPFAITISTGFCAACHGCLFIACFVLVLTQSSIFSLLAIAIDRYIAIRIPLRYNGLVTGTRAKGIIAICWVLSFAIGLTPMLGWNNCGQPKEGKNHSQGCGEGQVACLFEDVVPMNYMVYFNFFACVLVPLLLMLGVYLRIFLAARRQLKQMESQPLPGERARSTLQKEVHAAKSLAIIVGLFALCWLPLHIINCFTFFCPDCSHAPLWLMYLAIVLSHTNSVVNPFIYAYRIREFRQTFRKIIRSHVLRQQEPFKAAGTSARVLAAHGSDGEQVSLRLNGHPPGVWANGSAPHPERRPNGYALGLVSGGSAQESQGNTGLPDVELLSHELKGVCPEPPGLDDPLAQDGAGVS
Chain of 5-hydroxytryptamine receptor 2B (P41595 whole entry): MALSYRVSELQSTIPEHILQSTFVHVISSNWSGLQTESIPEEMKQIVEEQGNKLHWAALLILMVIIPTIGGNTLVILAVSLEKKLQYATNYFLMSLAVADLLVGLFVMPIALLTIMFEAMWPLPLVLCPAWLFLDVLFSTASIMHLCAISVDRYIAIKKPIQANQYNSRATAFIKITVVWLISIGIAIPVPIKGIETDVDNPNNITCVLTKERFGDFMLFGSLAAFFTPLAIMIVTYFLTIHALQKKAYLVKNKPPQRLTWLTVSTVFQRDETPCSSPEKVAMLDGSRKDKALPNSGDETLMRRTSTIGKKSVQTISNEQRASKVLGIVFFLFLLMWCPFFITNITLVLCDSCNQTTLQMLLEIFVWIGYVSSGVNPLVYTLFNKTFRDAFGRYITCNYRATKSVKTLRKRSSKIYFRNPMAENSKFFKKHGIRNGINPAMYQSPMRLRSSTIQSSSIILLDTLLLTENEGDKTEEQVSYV
Chain of Delta-type opioid receptor (P41143 whole entry): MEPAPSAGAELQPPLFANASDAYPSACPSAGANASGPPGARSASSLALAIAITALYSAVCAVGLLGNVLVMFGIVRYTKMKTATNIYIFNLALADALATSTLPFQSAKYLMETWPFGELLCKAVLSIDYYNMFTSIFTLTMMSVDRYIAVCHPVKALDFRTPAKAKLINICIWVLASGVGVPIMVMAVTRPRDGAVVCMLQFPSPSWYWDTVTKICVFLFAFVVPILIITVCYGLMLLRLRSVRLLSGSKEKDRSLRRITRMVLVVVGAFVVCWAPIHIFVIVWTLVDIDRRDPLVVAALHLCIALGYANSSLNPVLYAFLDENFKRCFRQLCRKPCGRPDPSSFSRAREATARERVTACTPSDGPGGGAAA

| SMILES | AC50 [1] | AC50 [2] | AC50 [3] | AC50 [4] | AC50 [5] | AC50 [6] | AC50 [7] | AC50 [8] | AC50 [9] | AC50 [10] | AC50 [11] |
| --- | --- | --- | --- | --- | --- | --- | --- | --- | --- | --- | --- |
| O=C1Nc2ccc(Cl)cc2[C@@](C#CC2CC2)(C(F)(F)F)O1 [EFAVIRENZ] | 6 µM | > 10 µM | 15 µM | > 10 µM | > 10 µM | 5.61 µM | > 30 µM | 19 µM | > 30 µM | > 30 µM | > 30 µM |
| CO[C@H]1C[C@@H]2CC[C@@H](C)[C@@](O)(O2)C(=O)C(=O)N2CCCC[C@H]2C(=O)O[C@H]([C@H](C)C[C@@H]2CC[C@@H](O)[C@H](OC)C2)CC(=O)[C@H](C)/C=C(\C)[C@@H](O)[C@@H](OC)C(=O)[C@H](C)C[C@H](C)/C=C/C=C/C=C/1C [SIROLIMUS] | 21.3 µM | > 10 µM | > 30 µM | > 10 µM | > 10 µM | > 30 µM | > 30 µM | > 10 µM | > 30 µM | > 30 µM | 6.8 µM |
| C[N+]1(C)CCC(OC(=O)C(O)(c2ccccc2)C2CCCC2)C1 (stereo not given) [GLYCOPYRRONIUM BROMIDE] | – | – | > 30 µM | – | – | – | > 30 µM | – | – | – | > 30 µM |
| O=C(Cc1ccc(-c2ccccc2)cc1)Nc1ccccn1 [DIFENPIRAMIDE] | – | > 30 µM | > 30 µM | > 30 µM | > 30 µM | > 30 µM | – | – | – | > 30 µM | – |
| CN1C(C(=O)Nc2ccccn2)=C(O)c2sc(Cl)cc2S1(=O)=O [LORNOXICAM] | > 30 µM | > 10 µM | > 30 µM | > 10 µM | > 10 µM | > 30 µM | > 30 µM | > 30 µM | > 30 µM | > 30 µM | > 30 µM |
| C1CCC(C(CC2CCCCN2)C2CCCCC2)CC1 (stereo not given) [PERHEXILINE] | 14.1 µM | 12 µM | > 30 µM | 11 µM | 9.1 µM | > 30 µM | 6.2 µM | > 30 µM | > 30 µM | 23.5 µM | > 30 µM |
| Cc1cccc(Nc2ccccc2C(=O)O)c1C [MEFENAMIC ACID] | > 10 µM | > 10 µM | > 30 µM | > 10 µM | > 10 µM | > 30 µM | > 10 µM | > 10 µM | > 10 µM | > 30 µM | > 10 µM |
| Cc1cn([C@H]2C=C[C@@H](CO)O2)c(=O)[nH]c1=O [STAVUDINE] | > 30 µM | > 10 µM | > 30 µM | > 10 µM | > 10 µM | > 30 µM | > 30 µM | > 10 µM | > 30 µM | > 10 µM | > 30 µM |
| Clc1ccc2nsnc2c1NC1=NCCN1 [TIZANIDINE] | > 30 µM | > 30 µM | > 30 µM | – | > 30 µM | > 30 µM | > 30 µM | > 10 µM | > 30 µM | > 30 µM | > 30 µM |
| C=CCc1ccccc1OCC(O)CNC(C)C (stereo not given) [ALPRENOLOL] | > 30 µM | > 30 µM | > 30 µM | > 30 µM | > 30 µM | > 30 µM | > 30 µM | – | > 30 µM | > 30 µM | > 30 µM |
| COc1cc(NC(C)CCCN)c2ncccc2c1 (stereo not given) [PRIMAQUINE] | – | – | 12 µM | – | – | – | > 30 µM | – | > 30 µM | – | – |
| Cc1nc([N+](=O)[O-])cn1-c1ccc([N+](=O)[O-])cc1 [NITREFAZOLE] | > 30 µM | > 30 µM | > 30 µM | > 30 µM | > 30 µM | > 30 µM | > 30 µM | > 30 µM | > 30 µM | > 30 µM | – |
| CC(C)C[C@H]1C(=O)N2CCC[C@H]2[C@]2(O)O[C@](NC(=O)[C@@H]3C=C4c5cccc6[nH]c(Br)c(c56)C[C@H]4N(C)C3)(C(C)C)C(=O)N12 [BROMOCRIPTINE] | 6.81 µM | 25 µM | 5.5 µM | – | 3.1 µM | 12 µM | 25 µM | 9.23 µM | > 30 µM | > 30 µM | 13 µM |
| CC(=O)Nc1ccc(O)cc1 [ACETAMINOPHEN] | > 30 µM | > 30 µM | > 30 µM | – | > 30 µM | > 30 µM | > 30 µM | > 30 µM | > 30 µM | > 30 µM | > 30 µM |
| CC(=O)NCCCS(=O)(=O)O [ACAMPROSATE] | > 30 µM | > 30 µM | > 30 µM | > 30 µM | > 30 µM | > 30 µM | > 30 µM | > 30 µM | > 30 µM | > 30 µM | – |
| c1cnc(N2CCN(Cc3ccc4c(c3)OCO4)CC2)nc1 [PIRIBEDIL] | > 30 µM | > 30 µM | > 30 µM | > 30 µM | > 30 µM | > 30 µM | 30 µM | – | > 30 µM | > 30 µM | > 30 µM |
| CCCN1C[C@H](CSC)C[C@@H]2c3cccc4[nH]cc(c34)C[C@H]21 [PERGOLIDE] | > 30 µM | 0.0155 µM | > 30 µM | – | – | – | > 30 µM | > 30 µM | > 30 µM | > 30 µM | > 30 µM |
| CC1=C(C(=O)O)N2C(=O)[C@@H](NC(=O)[C@H](N)c3ccccc3)[C@H]2SC1 [CEPHALEXIN ANHYDROUS] | > 30 µM | – | > 30 µM | > 30 µM | > 30 µM | > 30 µM | > 30 µM | > 10 µM | > 30 µM | > 30 µM | > 30 µM |
| C[C@H]1CNCCc2ccc(Cl)cc21 [LORCASERIN] | > 30 µM | – | > 30 µM | > 30 µM | > 30 µM | – | > 30 µM | 8.3 µM | > 30 µM | > 30 µM | > 30 µM |
